# Measurements: patent publication US9302999B2, “Substituted triazoles as herbicides” (E. I. DU PONT DE NEMOURS AND COMPANY, priority 2012, dated 2016)
# How the values were obtained:
# Assay type in all cases: in vivo
# [1] = tested on: morningglory (Ipomoea coccinea); test: Test C pre-/postemergence: morningglory
# Excerpt: (§1) Seeds of plant species selected from blackgrass (Alopecurus myosuroides), bromegrass, downy (downy bromegrass, Bromus tectorum), foxtail, green (green foxtail, Setaria viridis), ryegrass, Italian (Italian ryegrass, Lolium multiflorum), winter wheat (Triticum aestivum), wild oat (Avena fatua), galium (catchweed bedstraw, Galium aparine), bermudagrass (Cynodon dactylon), surinam grass (Brachiaria decumbens), cocklebur (common cocklebur, Xanthium strumarium), corn (Zea mays), large crabgrass (Digitaria sanguinalis), woolly cupgrass (Eriochloa villosa), foxtail, giant (giant foxtail, Setaria faberii), goosegrass (Eleusine indica), johnsongrass (Sorghum halepense), kochia (Kochia scoparia), lambsquarters (Chenopodium album), morningglory (Ipomoea coccinea), nightshade (eastern black nightshade, Solanum ptycanthum), nutsedge, yellow (yellow nutsedge, Cyperus esculentus), pigweed (Amaranthus retroflexus), ragweed (common ragweed, Ambrosia elation), soybean (Glycine max), common (oilseed) sunflower (Helianthus annuus), Russian thistle (Salsola kali) and velvetleaf (Abutilon theophrasti) were planted into a blend of loam soil and sand and treated preemergence with test chemicals formulated in a non-phytotoxic solvent mixture which included a surfactant.
# (§2) At the same time, plants selected from these crop and weed species and also barley (winter barley, Hordeum vulgare), canarygrass (Phalaris minor), chickweed (common chickweed, Stellaria media) windgrass (Apera spica-venti) and deadnettle (henbit deadnettle, Lamium amplexicaule) were planted in pots containing Redi-Earth® planting medium (Scotts Company, 14111 Scottslawn Road, Marysville, Ohio 43041) comprising spaghnum peat moss, vermiculite, wetting agent and starter nutrients and treated with postemergence applications of test chemicals formulated in the same manner. Plants ranged in height from 2 to 18 cm (1- to 4-leaf stage) for postemergence treatments.
# (§3) Treated plants and controls were maintained in a greenhouse for 13 to 15 days, after which time all species were compared to controls and visually evaluated. Plant response ratings, summarized in Table C, are based on a scale of 0 to 100 where 0 is no effect and 100 is complete control. A dash (-) response means no test result.
# [2] = tested on: corn (Zea mays); test: Test A pre-/postemergence: corn
# Outline: (§4)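 Soil medium was loam blended with sand; treatments pre- and postemergence were applied concurrently, postemergence at one- to two-leaf stage. Approximately ten days in greenhouse preceded visual comparison with untreated controls, scored 0 (no effect) to 100 (complete control).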
# [3] = tested on: pigweed (Amaranthus retroflexus); test: Test A pre-/postemergence: pigweed
# Outline: as §4
# [4] = tested on: pigweed (Amaranthus retroflexus); test: Test C pre-/postemergence: pigweed
# Excerpt: as §1, §2, §3
# [5] = tested on: ryegrass, Italian (Italian ryegrass, Lolium multiflorum); test: Test C pre-/postemergence: ryegrass, Italian
# Excerpt: as §1, §2, §3
# [6] = tested on: morningglory (Ipomoea spp.); test: Test A pre-/postemergence: morningglory
# Outline: as §4
# [7] = tested on: velvetleaf (Abutilon theophrasti); test: Test A pre-/postemergence: velvetleaf
# Outline: as §4
# [8] = tested on: chickweed (common chickweed, Stellaria media); test: Test C postemergence: chickweed
# Excerpt: as §2, §3
# [9] = tested on: lambsquarters (Chenopodium album); test: Test C pre-/postemergence: lambsquarters
# Excerpt: as §1, §2, §3
# [10] = tested on: wheat (Triticum aestivum); test: Test A pre-/postemergence: wheat
# Outline: as §4
# [11] = tested on: foxtail, giant (giant foxtail, Setaria faberii); test: Test C pre-/postemergence: foxtail, giant
# Excerpt: as §1, §2, §3
# [12] = tested on: kochia (Kochia scoparia); test: Test C pre-/postemergence: kochia
# Excerpt: as §1, §2, §3
# [13] = Postemergence, 62 g ai/ha, scale 0 to 100 (0 no effect, 100 complete control)
# [14] = Postemergence, 125 g ai/ha, scale 0 to 100, 0 no effect, 100 complete control
# [15] = Postemergence, 250 g ai/ha, scale 0 to 100
# [16] = Postemergence, 125 g ai/ha, 0 to 100 scale, 0 is no effect, 100 is complete control
# [17] = Postemergence, 500 g ai/ha, visual rating on 0 to 100 scale (0 no effect, 100 complete control), approximately ten days
# [18] = Preemergence, 125 g ai/ha, 0 to 100 scale where 0 is no effect and 100 is complete control
# [19] = Preemergence, 500 g ai/ha, 0 to 100 scale (0 no effect, 100 complete control)
# [20] = Postemergence, 31 g ai/ha, scale 0 to 100 (0 no effect, 100 complete control)
# [21] = Preemergence, 31 g ai/ha, scale 0 (no effect) to 100 (complete control)
# [22] = Preemergence, 62 g ai/ha, scale of 0 to 100, 0 is no effect, 100 is complete control
# [23] = Preemergence, 125 g ai/ha, scale 0 to 100, 0 no effect, 100 complete control
# [24] = Postemergence, 500 g ai/ha, 0 to 100 scale, 0 is no effect, 100 is complete control
# [25] = Preemergence, 16 g ai/ha, scale 0 (no effect) to 100 (complete control)
# [26] = Preemergence, 31 g ai/ha, scale of 0 to 100, 0 is no effect, 100 is complete control
# [27] = Preemergence, 250 g ai/ha, scale 0 to 100, 0 no effect, 100 complete control
compound,measurement,setting,value
Cc1nn(-c2ccnc(C(F)(F)F)c2)nc1Cc1ccnc(C(F)(F)F)c1 [Compound 137],"Plant response rating, Morningglory",[1]; [13],60
same,"Plant response rating, Morningglory",[1]; [14],80
same,"Plant response rating, Morningglory",[1]; [15],90
same,Corn plant response rating,[2]; [16],20
same,Corn plant response rating,[2]; [17],30
same,"Plant response rating, Corn",[2]; [18],0
same,"Plant response rating, Corn",[2]; [19],0
same,"Plant response rating, Pigweed",[3]; [16],100
same,Pigweed plant response rating,[3]; [17],100
same,"Plant response rating, Pigweed",[3]; [18],100
same,"Plant response rating, Pigweed",[3]; [19],100
same,"Plant response rating, Pigweed",[4]; [20],98
same,"Plant response rating, Pigweed",[4]; [13],100
same,"Plant response rating, Pigweed",[4]; [14],100
same,"Plant response rating, Pigweed",[4]; [15],100
same,"Plant response rating, Ryegrass, Italian",[5]; [20],35
same,"Plant response rating, Ryegrass, Italian",[5]; [13],55
same,"Plant response rating, Ryegrass, Italian",[5]; [14],65
same,"Plant response rating, Ryegrass, Italian",[5]; [15],90
same,"Plant response rating, Morningglory",[6]; [16],80
same,Morningglory plant response rating,[6]; [17],100
same,"Plant response rating, Morningglory",[6]; [18],40
same,"Plant response rating, Morningglory",[6]; [19],60
same,"Plant response rating, Velvetleaf",[7]; [16],80
same,Velvetleaf plant response rating,[7]; [17],100
same,"Plant response rating, Velvetleaf",[7]; [18],20
same,"Plant response rating, Velvetleaf",[7]; [19],20
same,"Plant response rating, Chickweed","[8]; 31 g ai/ha, scale 0 to 100 (0 no effect, 100 complete control)",70
same,"Plant response rating, Chickweed","[8]; 62 g ai/ha, scale 0 to 100 (0 no effect, 100 complete control)",80
same,"Plant response rating, Chickweed","[8]; 125 g ai/ha, scale 0 to 100, 0 no effect, 100 complete control",98
same,"Plant response rating, Chickweed","[8]; 250 g ai/ha, scale 0 to 100",98
same,"Plant response rating, Lambsquarters",[9]; [20],100
same,"Plant response rating, Lambsquarters",[9]; [13],100
same,"Plant response rating, Lambsquarters",[9]; [14],100
same,"Plant response rating, Lambsquarters",[9]; [15],100
same,"Plant response rating, Wheat",[10]; [16],20
same,Wheat plant response rating,[10]; [17],30
same,"Plant response rating, Wheat",[10]; [18],0
same,"Plant response rating, Wheat",[10]; [19],0
same,"Plant response rating, Foxtail, Giant",[11]; [20],10
same,"Plant response rating, Foxtail, Giant",[11]; [13],40
same,"Plant response rating, Foxtail, Giant",[11]; [15],50
same,"Plant response rating, Kochia",[12]; [20],90
same,"Plant response rating, Kochia",[12]; [13],90
same,"Plant response rating, Kochia",[12]; [14],90
same,"Plant response rating, Kochia",[12]; [15],90
CCOc1nn(-c2ccc(Br)cc2)nc1Cc1ccnc(C(F)(F)F)c1 [Compound 189],"Plant response rating, Morningglory",[1]; [21],10
same,"Plant response rating, Morningglory",[1]; [22],40
same,"Plant response rating, Morningglory",[1]; [23],60
same,"Plant response rating, Corn",[2]; [16],20
same,Corn plant response rating,[2]; [24],40
same,"Plant response rating, Corn",[2]; [18],10
same,"Plant response rating, Corn",[2]; [19],10
same,"Plant response rating, Pigweed",[3]; [16],100
same,Pigweed plant response rating,[3]; [24],100
same,"Plant response rating, Pigweed",[3]; [18],100
same,"Plant response rating, Pigweed",[3]; [19],100
same,"Plant response rating, Pigweed",[4]; [25],85
same,"Plant response rating, Pigweed",[4]; [21],98
same,"Plant response rating, Pigweed",[4]; [22],100
same,"Plant response rating, Pigweed",[4]; [23],100
same,"Plant response rating, Ryegrass, Italian",[5]; [25],50
same,"Plant response rating, Ryegrass, Italian",[5]; [21],60
same,"Plant response rating, Ryegrass, Italian",[5]; [22],85
same,"Plant response rating, Ryegrass, Italian",[5]; [23],100
same,"Plant response rating, Morningglory",[6]; [16],60
same,Morningglory plant response rating,[6]; [24],80
same,"Plant response rating, Morningglory",[6]; [18],20
same,"Plant response rating, Morningglory",[6]; [19],30
same,"Plant response rating, Velvetleaf",[7]; [16],70
same,Velvetleaf plant response rating,[7]; [24],90
same,"Plant response rating, Velvetleaf",[7]; [18],20
same,"Plant response rating, Velvetleaf",[7]; [19],60
same,"Plant response rating, Lambsquarters",[9]; [25],45
same,"Plant response rating, Lambsquarters",[9]; [21],85
same,"Plant response rating, Lambsquarters",[9]; [22],90
same,"Plant response rating, Lambsquarters",[9]; [23],90
same,"Plant response rating, Wheat",[10]; [16],50
same,Wheat plant response rating,[10]; [24],60
same,"Plant response rating, Wheat",[10]; [18],20
same,"Plant response rating, Wheat",[10]; [19],50
same,"Plant response rating, Foxtail, Giant",[11]; [25],100
same,"Plant response rating, Foxtail, Giant",[11]; [21],100
same,"Plant response rating, Foxtail, Giant",[11]; [22],100
same,"Plant response rating, Foxtail, Giant",[11]; [23],100
Cc1nn(-c2ccc(F)c(C(F)(F)F)c2)nc1Oc1ccnc(C(F)(F)F)c1 [Compound 147],"Plant response rating, Morningglory",[1]; [26],30
same,"Plant response rating, Morningglory",[1]; [22],30
same,"Plant response rating, Morningglory",[1]; [27],35
same,Corn plant response rating,[2]; [16],30
same,Corn plant response rating,[2]; [17],40
same,"Plant response rating, Corn",[2]; [18],10
same,"Plant response rating, Corn",[2]; [19],30
same,"Plant response rating, Pigweed",[3]; [16],100
same,Pigweed plant response rating,[3]; [17],100
same,"Plant response rating, Pigweed",[3]; [18],100
same,"Plant response rating, Pigweed",[3]; [19],100
same,"Plant response rating, Pigweed",[4]; [26],100
same,"Plant response rating, Pigweed",[4]; [22],100
same,"Plant response rating, Pigweed",[4]; [23],100
same,"Plant response rating, Pigweed",[4]; [27],100
same,"Plant response rating, Ryegrass, Italian",[5]; [26],10
same,"Plant response rating, Ryegrass, Italian",[5]; [22],50
same,"Plant response rating, Ryegrass, Italian",[5]; [23],85
same,"Plant response rating, Ryegrass, Italian",[5]; [27],95
same,"Plant response rating, Morningglory",[6]; [16],90
same,Morningglory plant response rating,[6]; [17],90
same,"Plant response rating, Morningglory",[6]; [19],80
same,"Plant response rating, Velvetleaf",[7]; [16],50
same,Velvetleaf plant response rating,[7]; [17],90
same,"Plant response rating, Velvetleaf",[7]; [18],20
same,"Plant response rating, Velvetleaf",[7]; [19],50
same,"Plant response rating, Lambsquarters",[9]; [26],35
same,"Plant response rating, Lambsquarters",[9]; [22],45
same,"Plant response rating, Lambsquarters",[9]; [23],80
same,"Plant response rating, Lambsquarters",[9]; [27],80
same,"Plant response rating, Wheat",[10]; [16],20
same,Wheat plant response rating,[10]; [17],50
same,"Plant response rating, Wheat",[10]; [18],30
same,"Plant response rating, Wheat",[10]; [19],50
same,"Plant response rating, Foxtail, Giant",[11]; [26],85
same,"Plant response rating, Foxtail, Giant",[11]; [22],98
same,"Plant response rating, Foxtail, Giant",[11]; [23],100
same,"Plant response rating, Foxtail, Giant",[11]; [27],100
same,"Plant response rating, Kochia",[12]; [26],35
same,"Plant response rating, Kochia",[12]; [22],40
same,"Plant response rating, Kochia",[12]; [23],80
same,"Plant response rating, Kochia",[12]; [27],85
